Experimental data from patent publication US9695155B2, “Herbicidal substituted pyrimidinyloxy benzene compounds” (E. I. DU PONT DE NEMOURS AND COMPANY, priority 2013, dated 2017).

Tests used:
blackgrass [1] = experiment: Test A postemergence; assay type: in vivo, Alopecurus myosuroides; conditions: 0 to 100 scale where 0 is no effect and 100 is complete control
Outline: (§1)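 Compounds in non-phytotoxic solvent with surfactant applied as soil spray preemergence, or postemergence to plants 2-10 cm at one- to two-leaf stage, in loam/sand. After approximately 10 days in greenhouse, injury rated visually versus untreated controls, 0 (no effect) to 100 (complete control).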

Italian ryegrass [2] = experiment: Test A postemergence; assay type: in vivo, Lolium multiflorum; conditions: 0 to 100 scale where 0 is no effect and 100 is complete control
Outline: as §1

morningglory = experiment: Test C preemergence; assay type: in vivo, Ipomoea coccinea; conditions: Ipomoea, pre-emergence, preemergence, read-out: Morningglory plant response rating
Outline: (§2)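 Injury was assessed visually against controls 13 to 15 days after application, with 0 meaning no effect and 100 full control; missing entries are shown as a dash. Preemergence sprays hit seeded loam–sand soil, postemergence sprays hit 1- to 4-leaf plants.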

blackgrass [3] = experiment: Test C preemergence; assay type: in vivo, Alopecurus myosuroides; conditions: Alopecurus myosuroides, pre-emergence
Outline: as §2

giant foxtail = experiment: Test C preemergence; assay type: in vivo, Setaria faberii; conditions: Setaria faberi, pre-emergence
Outline: as §2

ragweed = experiment: Test A postemergence; assay type: in vivo, Ambrosia elatior; conditions: 0 to 100 scale where 0 is no effect and 100 is complete control
Outline: as §1

soybean = experiment: Test C preemergence; assay type: in vivo, Glycine max; conditions: Glycine max, pre-emergence, preemergence, read-out: Soybean plant response rating
Outline: as §2

large (Lg) crabgrass = experiment: Test C preemergence; assay type: in vivo, Digitaria sanguinalis; conditions: Digitaria sanguinalis, pre-emergence
Outline: as §2

pigweed = experiment: Test C preemergence; assay type: in vivo, Amaranthus retroflexus; conditions: Amaranthus retroflexus, pre-emergence, preemergence, read-out: Pigweed plant response rating
Outline: as §2

Italian ryegrass [4] = experiment: Test C preemergence; assay type: in vivo, Lolium multiflorum; conditions: Lolium multiflorum, pre-emergence, preemergence, read-out: Ryegrass, Italian plant response rating
Outline: as §2

johnsongrass = experiment: Test C preemergence; assay type: in vivo, Sorghum halepense; conditions: Sorghum halepense, pre-emergence, preemergence, read-out: Johnsongrass plant response rating
Outline: as §2

barnyardgrass = experiment: Test C preemergence; assay type: in vivo, Echinochloa crus-galli; conditions: Echinochloa crus-galli, pre-emergence
Outline: as §2

galium = experiment: Test A postemergence; assay type: in vivo, Galium aparine; conditions: 0 to 100 scale where 0 is no effect and 100 is complete control
Outline: as §1

oilseed rape = experiment: Test C preemergence; assay type: in vivo, Brassica napus; conditions: Brassica napus, pre-emergence, preemergence, read-out: Oilseed Rape plant response rating
Outline: as §2

lambsquarters = experiment: Test C preemergence; assay type: in vivo, Chenopodium album; conditions: Chenopodium album, pre-emergence, preemergence, read-out: Lambsquarters plant response rating
Outline: as §2

kochia = experiment: Test A postemergence; assay type: in vivo, Kochia scoparia; conditions: 0 to 100 scale where 0 is no effect and 100 is complete control
Outline: as §1

velvetleaf = experiment: Test C preemergence; assay type: in vivo, Abutilon theophrasti; conditions: Abutilon theophrasti, pre-emergence, preemergence, read-out: Velvetleaf plant response rating
Outline: as §2

yellow nutsedge = experiment: Test C preemergence; assay type: in vivo, Cyperus esculentus; conditions: Cyperus, pre-emergence, preemergence, read-out: Nutsedge, Yellow plant response rating
Outline: as §2

waterhemp = experiment: Test C preemergence; assay type: in vivo, Amaranthus rudis; conditions: Amaranthus tuberculatus, pre-emergence, preemergence, read-out: Waterhemp plant response rating
Outline: as §2

[5] = 16 g ai/ha, scale 0 to 100 (0 no effect, 100 complete control)
[6] = 62 g ai/ha, scale 0 (no effect) to 100 (complete control)
[7] = 125 g ai/ha, scale 0 (no effect) to 100 (complete control)

Question: For `FC(F)c1cn(-c2ccccc2Oc2ncc(Cl)cn2)nn1` [Compound 147, 5-chloro-2-[2-[4-(difluoromethyl)-1H-1,2,3-triazol-1-yl]phenoxy]pyrimidine], which “Blackgrass plant response rating” value (blackgrass [1]; 125 g ai/ha) is on record?
Answer: 100

Question: And the “Plant response rating, Blackgrass” value (blackgrass [1]; 500 g ai/ha)?
Answer: 100

Question: And the “Ryegrass, Italian plant response rating” value (Italian ryegrass [2]; 125 g ai/ha)?
Answer: 70

Question: What about the “Plant response rating, Ryegrass, Italian” value (Italian ryegrass [2]; 500 g ai/ha) of the same compound?
Answer: 90

Question: What about the pest or weed control at 16 g/ha (morningglory; [5]) of the same compound?
Answer: 40%

Question: And the pest or weed control at 62 g/ha (morningglory; [6])?
Answer: 95%

Question: What about the pest or weed control at 125 g/ha (morningglory; [7]) of the same compound?
Answer: 100%

Question: And the pest or weed control at 16 g/ha (blackgrass [3]; 16 g ai/ha, preemergence, scale 0 to 100 (0 no effect, 100 complete control), read-out: Blackgrass plant response rating)?
Answer: 0%

Question: And the pest or weed control at 62 g/ha (blackgrass [3]; 62 g ai/ha, preemergence, scale 0 (no effect) to 100 (complete control), read-out: Blackgrass plant response rating)?
Answer: 50%

Question: And the pest or weed control at 125 g/ha (blackgrass [3]; 125 g ai/ha, preemergence, scale 0 (no effect) to 100 (complete control), read-out: Blackgrass plant response rating)?
Answer: 90%

Question: What about the pest or weed control at 31 g/ha (blackgrass [3]; Preemergence, 31 g ai/ha, scale 0 to 100, 0 no effect, 100 complete control, read-out: Plant response rating, Blackgrass) of the same compound?
Answer: 40%

Question: And the pest or weed control at 16 g/ha (giant foxtail; 16 g ai/ha, preemergence, scale 0 to 100 (0 no effect, 100 complete control), read-out: Foxtail, Giant plant response rating)?
Answer: 70%

Question: What about the pest or weed control at 62 g/ha (giant foxtail; 62 g ai/ha, preemergence, scale 0 (no effect) to 100 (complete control), read-out: Foxtail, Giant plant response rating) of the same compound?
Answer: 100%

Question: And the pest or weed control at 125 g/ha (giant foxtail; 125 g ai/ha, preemergence, scale 0 (no effect) to 100 (complete control), read-out: Foxtail, Giant plant response rating)?
Answer: 100%

Question: And the pest or weed control at 31 g/ha (giant foxtail; Preemergence, 31 g ai/ha, scale 0 to 100, 0 no effect, 100 complete control, read-out: Plant response rating, Foxtail, Giant)?
Answer: 100%

Question: What about the “Ragweed plant response rating” value (ragweed; 125 g ai/ha) of the same compound?
Answer: 100

Question: And the “Plant response rating, Ragweed” value (ragweed; 500 g ai/ha)?
Answer: 100

Question: And the plant injury at 16 g/ha (soybean; [5])?
Answer: 85%

Question: And the plant injury at 62 g/ha (soybean; [6])?
Answer: 95%

Question: And the plant injury at 125 g/ha (soybean; [7])?
Answer: 95%

Question: And the pest or weed control at 16 g/ha (large (Lg) crabgrass; 16 g ai/ha, preemergence, scale 0 to 100 (0 no effect, 100 complete control), read-out: Crabgrass, Large plant response rating)?
Answer: 98%

Question: And the pest or weed control at 62 g/ha (large (Lg) crabgrass; 62 g ai/ha, preemergence, scale 0 (no effect) to 100 (complete control), read-out: Crabgrass, Large plant response rating)?
Answer: 100%

Question: What about the pest or weed control at 125 g/ha (large (Lg) crabgrass; 125 g ai/ha, preemergence, scale 0 (no effect) to 100 (complete control), read-out: Crabgrass, Large plant response rating) of the same compound?
Answer: 100%

Question: And the pest or weed control at 31 g/ha (large (Lg) crabgrass; Preemergence, 31 g ai/ha, scale 0 to 100, 0 no effect, 100 complete control, read-out: Plant response rating, Crabgrass, Large)?
Answer: 100%

Question: And the pest or weed control at 16 g/ha (pigweed; [5])?
Answer: 100%

Question: What about the pest or weed control at 62 g/ha (pigweed; [6]) of the same compound?
Answer: 100%

Question: And the pest or weed control at 125 g/ha (pigweed; [7])?
Answer: 100%

Question: And the pest or weed control at 16 g/ha (Italian ryegrass [4]; [5])?
Answer: 0%

Question: And the pest or weed control at 62 g/ha (Italian ryegrass [4]; [6])?
Answer: 50%

Question: What about the pest or weed control at 125 g/ha (Italian ryegrass [4]; [7]) of the same compound?
Answer: 70%

Question: What about the pest or weed control at 16 g/ha (johnsongrass; [5]) of the same compound?
Answer: 10%

Question: What about the pest or weed control at 62 g/ha (johnsongrass; [6]) of the same compound?
Answer: 80%

Question: And the pest or weed control at 125 g/ha (johnsongrass; [7])?
Answer: 90%

Question: And the pest or weed control at 16 g/ha (barnyardgrass; 16 g ai/ha, preemergence, scale 0 to 100 (0 no effect, 100 complete control), read-out: Barnyardgrass plant response rating)?
Answer: 10%

Question: And the pest or weed control at 62 g/ha (barnyardgrass; 62 g ai/ha, preemergence, scale 0 (no effect) to 100 (complete control), read-out: Barnyardgrass plant response rating)?
Answer: 90%

Question: What about the pest or weed control at 125 g/ha (barnyardgrass; 125 g ai/ha, preemergence, scale 0 (no effect) to 100 (complete control), read-out: Barnyardgrass plant response rating) of the same compound?
Answer: 100%

Question: And the pest or weed control at 31 g/ha (barnyardgrass; Preemergence, 31 g ai/ha, scale 0 to 100, 0 no effect, 100 complete control, read-out: Plant response rating, Barnyardgrass)?
Answer: 80%

Question: And the “Galium plant response rating” value (galium; 125 g ai/ha)?
Answer: 100

Question: What about the “Plant response rating, Galium” value (galium; 500 g ai/ha) of the same compound?
Answer: 100

Question: And the plant injury at 16 g/ha (oilseed rape; [5])?
Answer: 100%

Question: And the plant injury at 62 g/ha (oilseed rape; [6])?
Answer: 100%

Question: What about the plant injury at 125 g/ha (oilseed rape; [7]) of the same compound?
Answer: 100%

Question: And the pest or weed control at 16 g/ha (lambsquarters; [5])?
Answer: 100%

Question: What about the pest or weed control at 62 g/ha (lambsquarters; [6]) of the same compound?
Answer: 100%

Question: And the pest or weed control at 125 g/ha (lambsquarters; [7])?
Answer: 100%

Question: And the “Kochia plant response rating” value (kochia; 125 g ai/ha)?
Answer: 100

Question: And the “Plant response rating, Kochia” value (kochia; 500 g ai/ha)?
Answer: 100

Question: What about the pest or weed control at 16 g/ha (velvetleaf; [5]) of the same compound?
Answer: 100%

Question: And the pest or weed control at 62 g/ha (velvetleaf; [6])?
Answer: 100%

Question: And the pest or weed control at 125 g/ha (velvetleaf; [7])?
Answer: 100%

Question: What about the pest or weed control at 16 g/ha (yellow nutsedge; [5]) of the same compound?
Answer: 0%

Question: What about the pest or weed control at 62 g/ha (yellow nutsedge; [6]) of the same compound?
Answer: 15%

Question: What about the pest or weed control at 125 g/ha (yellow nutsedge; [7]) of the same compound?
Answer: 55%

Question: And the pest or weed control at 16 g/ha (waterhemp; [5])?
Answer: 100%

Question: What about the pest or weed control at 62 g/ha (waterhemp; [6]) of the same compound?
Answer: 100%

Question: What about the pest or weed control at 125 g/ha (waterhemp; [7]) of the same compound?
Answer: 100%
